Data as given in ChEMBL document CHEMBL3507680, “University of Dundee, Gates Library screen for HepG2 cell viability”.

Test: Human HepG2 cell viability assay in 384 well format
Type: toxicity, cell-based
Design: dose 125 nL, time 70.5 hour; concentration not given beside the values
Details: HepG2 cells, read-out: Inhibition

| SMILES | cytotoxicity at 70.5 h [%] |
| --- | --- |
| CC(=O)N1CCC(NC(=O)c2ccccc2-n2cnnn2)CC1 | -3.54 |
| O=C(c1ccoc1)N1CC[C@H]2C[C@@H](c3nnc(C4CC4)o3)O[C@@H]2C1 | -12 |
| CC(=O)N1CCC(N2CCN(Cc3ccc(C)o3)C(CCO)C2)CC1 (centres undefined) | -6.87 |
| CC(C)n1cnnc1CN(C)Cc1ccc(CN(C)S(C)(=O)=O)o1 | -2.72 |
| Cc1csc2c(C3CCN(C(=O)Cn4cncn4)CC3)nc(C)n12 | -2.36 |
| O=S(=O)(NCC1(O)CCOc2ccccc21)c1ccccc1F (centres undefined) | -4.25 |
| COCc1ccccc1CNCc1c(C(C)C)nn(C)c1N(C)C | -0.306 |
| OCCCNc1nc(O)c2c(n1)-c1ccccc1CC21CCCCC1 | -9.73 |
| CCCC1(CO)CCCN(C(=O)CNC(N)=O)C1 (centres undefined) | -28.7 |
| Cc1ccc(C(=O)N2CC(c3cccnc3)C2)cc1N1CCNC1=O | -7.03 |
| COc1ccccc1-c1ccc(C(=O)N2C[C@H]3CC[C@@H]2CN(C)C3)cc1 | -8.1 |
| CCc1c(C)nc(C2CCCN2C(=O)c2cc(C)no2)nc1O (centres undefined) | 10.5 |
| Cc1ccsc1CN1CCCC(CNC(=O)c2ccc(N)nc2)C1 (centres undefined) | -8.08 |
| N#Cc1ccc(F)c(CNC(=O)NC(CO)Cc2ccccc2)c1 (centres undefined) | -3.61 |
| CCc1nccn1C1CCCN(C(=O)c2ccc(-n3ccnc3)cc2)C1 (centres undefined) | -10.5 |
| Cc1cc(C(=O)N(CC(=O)O)CC(C)C)ccc1F | -7.96 |
| CCN1CC2(CC1=O)CN(Cc1ccc(C)o1)CCN(C(=O)C(C)C)C2 (centres undefined) | -16.6 |
| CCN(CC1COc2ccccc2O1)C(=O)CCn1cncn1 (centres undefined) | -5.89 |
| COCCc1noc(CN2CCCC2Cn2nc(C)cc2C)n1 (centres undefined) | 1.57 |
| CCc1nc(CN2CCCN(C(=O)Cc3cccs3)CC2)cs1 | -6.45 |
| CCOc1ccc(S(=O)(=O)N(CCOC)Cc2ccoc2)cc1F | -11.6 |
| CCc1n[nH]c(C2CN(C(=O)Cn3ccccc3=O)CCO2)n1 (centres undefined) | 21.1 |
| CCC1=N[C@@]2(CC[C@@H]3CN(Cc4ccccc4F)C[C@@H]32)C(=O)N1CC | -6.42 |

| SMILES | cytotoxicity at 70.5 h [%] |
| --- | --- |
| CNC(=O)NCC(CO)Cc1ccccc1OC(F)(F)F (centres undefined) | -5.84 |
| Fc1ccc(Sc2ccccc2CNC2=NCCN2)cc1 | -5.29 |
| Cc1ccc(S(N)(=O)=O)cc1C(=O)N1CCc2c(ncnc2N(C)C)C1 | 0.0385 |
| O=C(CN1CCC(N2CCNC2=O)CC1)NCC(F)(F)F | -11.3 |
| CCNC(c1cccnc1)c1ccc(F)c(F)c1 (centres undefined) | -2.78 |
| COc1cccc(C(O)C(=O)N(C)CCc2ccccn2)c1 (centres undefined) | -0.0669 |
| Cc1cnn(CC(C)NCCc2cccs2)c1 (centres undefined) | 23.7 |
| Cc1ccc2oc(C(=O)N3CCCC(n4cccn4)C3)cc2n1 (centres undefined) | 21.1 |
| CC(=O)N1CCC(C(=O)NCCN2CCCCC2)CC1 | -0.67 |
| Cc1cccc(CN(C(=O)CS(C)(=O)=O)C(C)C)c1 | -2.96 |
| NC(=O)C1CCN(CC(=O)NCCc2c(F)cccc2F)CC1 | -7.99 |
| COC(=O)CC(NC(=O)c1cccc(CS(C)(=O)=O)c1)c1cccs1 (centres undefined) | -4.71 |
| Cc1nc(-c2ccncc2)ncc1C(C)NC(=O)CN1CCOC1=O (centres undefined) | -5.31 |
| CCOCCN1CCN([C@@H]2c3ccccc3C3(CCNCC3)[C@H]2O)CC1 | 28.9 |
| CCc1ccc(CN2CCC(CNS(=O)(=O)C3CC3)C2)nc1 (centres undefined) | -2.29 |
| c1ccn2c(SCC3CN=C(N4CCOCC4)S3)ncc2c1 (centres undefined) | 19.3 |
| Cc1ccc(C)c(CS(=O)(=O)Cc2ccn(C)c(=O)c2)c1 | -7.9 |
| CCN(C(=O)CCn1cccn1)C1CC1 | -5.79 |
| Cc1ccccc1C(=O)N1CC[C@@H](N2CCC(O)CC2)[C@H](O)C1 | -1.6 |
| N#Cc1ccc(N2CCC(NS(=O)(=O)c3cccs3)CC2)c(F)c1 | -9.83 |
| COCCOc1cc(C(=O)N2CC(C)c3ccccc32)ccn1 (centres undefined) | -11.1 |
| COc1cccc(-c2n[nH]c3c2CN(C(=O)c2ccncc2)CC3)c1 | -5.87 |
| O=C1COC2(CCN(Cc3cccs3)CC2)CN1c1cncnc1 | 0.999 |

| SMILES | cytotoxicity at 70.5 h [%] |
| --- | --- |
| CCc1ccc(C(=O)N(c2cccnc2)C(C)C)cc1S(C)(=O)=O | -8 |
| CC[C@@H]1N(Cc2nccs2)CCC[C@]12CCC(=O)N2CCOC | -2.16 |
| Cc1nccn1CCCn1c(=O)cnc2ccccc21 | -10.5 |
| COc1ccc(C(=O)Nc2c(C)nn(C(C)C)c2C)cc1 | 23.1 |
| CN1CCN2C(=O)N(c3ccccc3)C[C@H]2C1 | -0.222 |
| COc1cccc(OCC2CCCN(C(=O)c3ccc(N)nc3)C2)c1 (centres undefined) | -11.6 |
| COc1cccc(OCC(=O)NS(=O)(=O)c2cccnc2)c1 | -3.41 |
| Cc1ccnc(NC(=O)CCNC(=O)c2ccccc2Cl)c1 | -1.99 |
| CC(=O)N1CC(=O)N(c2ccccc2)CC12CCN(Cc1nccs1)C2 (centres undefined) | -3.72 |
| Cc1c(C2CC(=O)Nc3c2cnn3C(C)(C)C)cnn1C (centres undefined) | -11.8 |
| CCN(C)c1nccc(N2CCN[C@H]3CS(=O)(=O)C[C@H]32)n1 | 10.7 |
| O=S(=O)(C1CC1)N1CCC[C@]2(C[C@@H](Oc3ccccn3)CO2)C1 | 14.1 |
| O=C(Cn1ccc2c(Cl)cccc21)N1CCC2(CC1)OCCO2 | -4.3 |
| CCCN1CCN(C(=O)CCn2cccc2)CC1 | -5.28 |
| COCC1CN(Cc2c(C)noc2C)Cc2ccnn2C1 (centres undefined) | -9.74 |
| CC(C)NC(=O)c1ccc2c(c1)C1(CCN(C)CC1)C(=O)N2 | 2.1 |
| CC(C)c1nccn1CCCNC(=O)c1ccc(N(C)C)nc1 | -1.73 |
| Cc1ccc(OCC(C)NS(C)(=O)=O)cc1C (centres undefined) | -3.53 |
| COc1ccc(CCCC(=O)N2CCCC(n3cccn3)C2)cc1 (centres undefined) | 14.5 |
| CCSCc1cccc(NCc2cccnc2)c1 | -14.7 |
| COc1ccc(CN(CC2CCCO2)C(=O)CN2CCCCC2=O)cc1 (centres undefined) | -12.9 |
| COC(=O)c1ccc(N2CCN(C(=O)c3cc(C)no3)C(C)C2)cc1 (centres undefined) | -12 |
| Cc1cnc(C)c(N2CC[C@H](N3CCOCC3)[C@H](CCCO)C2)n1 | -9.88 |

| SMILES | cytotoxicity at 70.5 h [%] |
| --- | --- |
| CC(NC(=O)NCC(C)(C)C(N)=O)c1nc(-c2ccccc2)cs1 (centres undefined) | -5.18 |
| Cc1cc(NC(=O)C(C)Nc2ccn(Cc3ccccn3)n2)on1 (centres undefined) | -10.1 |
| Cc1ccc(NS(=O)(=O)c2cnn(-c3ccccc3)c2)c(C(=O)O)c1 | -5.8 |
| CCOC(=O)C1CN(S(=O)(=O)CC)Cc2ncn(CC)c21 (centres undefined) | 0.473 |
| Cc1cnn(C2CCCN(C(=O)c3ccc(C(N)=O)cn3)C2)c1 (centres undefined) | 3.91 |
| CC(=O)N(Cc1noc(C)n1)C1CCN(Cc2ccncc2Cl)C1 (centres undefined) | -4.45 |
| O=C(c1cc[nH]n1)N1CCCC1c1ccccn1 (centres undefined) | -4.38 |
| CC(=O)NC(Cc1c[nH]c2cc(F)ccc12)C(=O)Nc1nncs1 (centres undefined) | -2.58 |
| CC(C)CC(N)C1=N/C(=C2\N=CN=N2)NO1 (centres undefined) | 29.4 |
| O=C(NCCc1nccs1)[C@H](c1ccccc1)n1cnnn1 | -5.33 |
| CN(C)c1cc(CNC(=O)c2ccc(O)nc2)ccn1 | 14.5 |
| Cc1cc(C)n(C2CCN(S(=O)(=O)N3CCC(C)CC3)CC2)n1 | -3.62 |
| Cc1noc(C)c1CCC(=O)N1CCCC(n2ccnc2C)C1 (centres undefined) | 3.81 |
| O=C(Nc1ccc(F)cc1)C(c1ccccc1)N1CCOCC1 (centres undefined) | 5.55 |
| Cc1[nH]c2c(C)ccc(C)c2c1CC(=O)NCCNc1cccnc1 | 27 |
| CCN(C(=O)CN1CCn2c(C)nnc2C1)C1=CCCCC1 | -17 |
| CC(NC(=O)CN1C=Nc2ccccc2S1(=O)=O)C1CC1 (centres undefined) | 11 |
| Cc1nc(C2CCCN2C(=O)COCc2ccccc2)no1 (centres undefined) | -10.2 |
| COCCN1C[C@H]2CCN(C(=O)Nc3ccccc3C)CC[C@H]2S1(=O)=O | -11.5 |
| Cc1nc(CN2CCC(N(C)Cc3nnc(C4CC4)n3C)C2)cs1 (centres undefined) | -1.39 |
| O=C(NCCCOc1cccnc1)c1cn(CCc2ccccc2)nn1 | -7.58 |
| CCc1cc(N(C)Cc2ccncn2)n2nccc2n1 | 13.1 |
| Cc1nc2c(c(C)c1CC(=O)NCc1cccc(C#N)c1)c(=O)[nH]n2C | -2.99 |

| SMILES | cytotoxicity at 70.5 h [%] |
| --- | --- |
| O=C(CN1C(=O)CCCc2sccc21)NC1CCc2nccn2C1 (centres undefined) | -1.68 |
| CSCCC(CO)NC(=O)c1ccc2[nH]/c(=N\S(C)(=O)=O)sc2c1 (centres undefined) | -13.7 |
| COc1cc(CN2CCC3(CC2)[C@H](O)C[C@@H]3OCCO)ccc1F | -8.63 |
| O=C(COCC1CC1)NCC(c1ccccc1)N1CCc2sccc2C1 (centres undefined) | -6.84 |
| Cc1ccc(N2CCO[C@H]3CN(Cc4cccs4)C[C@H]32)nn1 | 8.57 |
| O=C1O[C@@H]2CN(Cc3cc4ccccc4s3)C[C@@H]2N1Cc1ccccn1 | -6.44 |
| Cc1csc(C2CCCCN2C(=O)c2cc(Cl)c[nH]2)n1 (centres undefined) | -0.326 |
| COC(=O)CC(c1cccs1)c1oc(C)cc(=O)c1O (centres undefined) | -7.87 |
| COc1cc(Br)c(CNC2CCCNC2=O)cc1OC (centres undefined) | -0.0651 |
| Cc1noc(C2CCCN(C(=O)c3cccc(Cl)c3)C2)n1 (centres undefined) | -0.713 |
| COc1cc(CNc2nc(C3CC3)no2)cc(OC)c1OC | 6.45 |
| O=C(Cc1c[nH]c2ccccc12)N1CCC(Nc2ccccc2)CC1 | -3.37 |
| CSCCc1nc(C(C)C)nn1-c1ccncc1C | -12.8 |
| Cc1ccccc1C(CC(=O)N1CCc2sccc2C1)NC(N)=O (centres undefined) | -21.9 |
| CN1C[C@H](O)[C@]2(CCN(C(=O)COc3ccccc3)C2)S1(=O)=O | -5.4 |
| Cc1cc(CN(C)C(=O)c2cc3c([nH]c2=O)CCCC3=O)no1 | -14.6 |
| COc1ccc(N2CCN(CC(O)c3cc(C)ccc3C)CC2)cc1 (centres undefined) | -14.7 |
| CSCC(CCO)NC(=O)Nc1cccc(Br)c1 (centres undefined) | -0.357 |
| Cc1ccccc1CSc1ncccc1C(=O)N(C)C | -2.93 |
| CCN(CC)c1ccc(CNC(=O)N2CCC(C#N)CC2)cc1 | -14.6 |
| Cn1ccnc1CN1CCC2(CC1)Cc1ccccc1CNC2=O | -3.2 |
| O=C(Nc1cnccn1)[C@@H]1COC[C@H]2CN(C3CCCC3)C[C@H]21 | -3.18 |
